The text below walks through data of patent US20240409585A1, “MACROCYCLIC IMMUNOMODULATORS” (priority 2021, published 2024).

Bridge positions count the residues as written; N and C are the ends. Square brackets hold non-standard residues; d marks the D form. Peptide text beside a SMILES is read from it. * marks the point of attachment. ξ: configuration not given here. Ala(morpholin-4-yl) = N[C@@H](CN1CCOCC1)C(=O)O; Phe(4-COOH) = N[C@@H](Cc1ccc(C(=O)O)cc1)C(=O)O; Bip = N[C@@H](Cc1ccc(-c2ccccc2)cc1)C(=O)O; Phe(3-Br) = N[C@@H](Cc1cccc(Br)c1)C(=O)O; Phe(3-Me) = Cc1cccc(C[C@H](N)C(=O)O)c1; Val(3-OH) = CC(C)(O)[C@H](N)C(=O)O; Cha = N[C@@H](CC1CCCCC1)C(=O)O; Cit = NC(=O)NCCC[C@H](N)C(=O)O; Ile(3ξ) = CCC(C)[C@H](N)C(=O)O; Thr(3ξ) = CC(O)[C@H](N)C(=O)O; Pip = O=C(O)[C@@H]1CCCCN1; Carboxymethyl = O=C(O)C*; NMeA = CN[C@@H](C)C(=O)O; Orn = NCCC[C@H](N)C(=O)O; Dab = NCC[C@H](N)C(=O)O; Dap = NC[C@H](N)C(=O)O

T1 sequence (Q15116 25-288): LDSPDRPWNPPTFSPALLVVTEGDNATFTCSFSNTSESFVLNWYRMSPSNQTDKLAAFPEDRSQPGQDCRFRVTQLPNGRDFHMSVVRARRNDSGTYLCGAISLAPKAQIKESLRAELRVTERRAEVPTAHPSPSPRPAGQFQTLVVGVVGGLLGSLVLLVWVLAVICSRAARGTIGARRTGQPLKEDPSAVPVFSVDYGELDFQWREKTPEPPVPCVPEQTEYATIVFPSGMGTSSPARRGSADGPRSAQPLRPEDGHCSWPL

The assay concerns the target T1, PE-labeled human PD-L1-Ig binding to Jurkat cell line over-expressing human PD-1 (Jurkat-PD-1) (Homo sapiens, UniProt Q15116).
T1 construct: expressed in transfected cells; host or cells: Jurkat
The assay is described as follows: Jurkat-PD-1 Cell Binding High-Content Screening Assay (CBA): Method 1. The settings on record: Jurkat-hPD-1 cells, PE-labeled PD-L1-Ig 20 nM final; read-out: Jurkat HPDL1 PD1 IC50 (uM) (Method 1).
One may read the IC50 as the concentration that gives 50% inhibition. As for `CC(C)C[C@@H]1NC(=O)[C@H](CCCCN)NC(=O)[C@@H](CC(C)C)NC(=O)[C@H](C)N(C)C(=O)[C@H](CCCNC(N)=O)NC(=O)[C@H](Cc2ccc(-c3ccccc3)cc2)NC(=O)[C@H](C(C)C)NC(=O)[C@H](Cc2c[nH]c3ccccc23)NC(=O)[C@H](CC(=O)O)NC(=O)[C@H](Cc2ccc(O)cc2)NC(=O)[C@H](CC(N)=O)NC(=O)CSC[C@@H](C(=O)NCC(N)=O)NC(=O)[C@H](CO)NC(=O)[C@H](C(C)C)NC1=O` [Compound 1474] ({CH2CO}-NYDWV[Bip][Cit][NMeA][dL]KLVSCG-NH2; thioether N-14), the IC50 stood at 0.08 µM.
Then `CC(C)C[C@@H]1NC(=O)[C@H](Cc2c[nH]c3ccccc23)NC(=O)[C@H](CC(=O)O)NC(=O)[C@H](Cc2ccc(O)cc2)NC(=O)[C@H](Cc2ccccc2)NC(=O)CSC[C@@H](C(=O)NCC(N)=O)NC(=O)[C@H](CO)NC(=O)[C@H](C(C)C)NC(=O)[C@H](CC(C)C)NC(=O)[C@H](CC(N)=O)NC(=O)[C@H](CCC(N)=O)NC(=O)[C@H](C)N(C)C(=O)[C@H](C(C)C)NC(=O)[C@H](Cc2ccc(-c3ccccc3)cc2)NC1=O` [Compound 1811] ({CH2CO}-FYDWL[Bip]V[NMeA]QNLVSCG-NH2; thioether N-14), with 0.28 µM; and `CC(C)C[C@@H]1NC(=O)[C@H](CCCNC(=N)N)NC(=O)[C@@H](CC(C)C)NC(=O)[C@H](C)N(C)C(=O)[C@H](CCC(=O)O)NC(=O)[C@H](Cc2ccc(-c3ccccc3)cc2)NC(=O)[C@H](C(C)C)NC(=O)[C@H](Cc2c[nH]c3ccccc23)NC(=O)[C@H](CC(=O)O)NC(=O)[C@H](Cc2ccc(O)cc2)NC(=O)[C@H](Cc2ccccc2)NC(=O)CSC[C@@H](C(=O)N[C@@H](C)C(N)=O)NC(=O)[C@H]([C@@H](C)O)NC(=O)[C@H](C(C)C)NC1=O` [Compound 1141] ({CH2CO}-FYDWV[Bip]E[NMeA][dL]RLVTCA-NH2; thioether N-14), with 0.04 µM.
For `CC(C)C[C@@H]1NC(=O)[C@H](CCCNC(=N)N)NC(=O)[C@@H](CC(C)C)NC(=O)[C@H](C)N(C)C(=O)[C@H](CCCNC(=N)N)NC(=O)[C@H](Cc2ccc(-c3ccccc3)cc2)NC(=O)[C@H](C(C)C)NC(=O)[C@H](Cc2c[nH]c3ccccc23)NC(=O)[C@H](CC(=O)O)NC(=O)[C@H](Cc2ccc(O)cc2)NC(=O)[C@H](CCC(N)=O)NC(=O)CSC[C@@H](C(=O)N[C@@H](C)C(N)=O)NC(=O)[C@H]([C@@H](C)O)NC(=O)[C@H](C(C)C)NC1=O` [Compound 1046] ({CH2CO}-QYDWV[Bip]R[NMeA][dL]RLVTCA-NH2; thioether N-14), the 50% inhibitory concentration (IC50) turned out to be 0.1 µM.
Then `CCC(C)[C@@H]1NC(=O)[C@H](Cc2ccc(-c3ccccc3)cc2)NC(=O)[C@H](C(C)C)NC(=O)[C@H](Cc2cccc(C)c2)NC(=O)[C@H](CC(=O)O)NC(=O)[C@H](Cc2ccc(OCC(=O)O)cc2)NC(=O)[C@H](C(C)O)NC(=O)CSC[C@@H](C(=O)N[C@@H](CCCN)C(N)=O)NC(=O)[C@H](C(C)O)NC(=O)[C@H](C(C)(C)O)NC(=O)[C@H](CC2CCCCC2)NC(=O)[C@H](CCN)NC(=O)[C@@H](CC(C)C)NC(=O)[C@H](C)N(C)C1=O` (stereo partly drawn) [Compound 2147] ({CH2CO}-[Thr(3ξ)]Y(Carboxymethyl)D[Phe(3-Me)]V[Bip][Ile(3ξ)][NMeA][dL][Dab][Cha][Val(3-OH)][Thr(3ξ)]C[Orn]-NH2; thioether N-14), with 0.01 µM.
Under `CCC(C)[C@@H]1NC(=O)[C@H](Cc2ccc(-c3ccccc3)cc2)NC(=O)[C@H](CC(C)C)NC(=O)[C@H](Cc2c[nH]c3ccccc23)NC(=O)[C@H](CC(=O)O)NC(=O)[C@H](Cc2ccc(C(=O)O)cc2)NC(=O)[C@H](Cc2ccc(OCC(=O)O)cc2)NC(=O)CSC[C@@H](C(=O)N[C@@H](CCN)C(N)=O)NC(=O)[C@H](CO)NC(=O)[C@H](C(C)C)NC(=O)[C@H](CC2CCCCC2)NC(=O)[C@H](CCN)NC(=O)[C@@H](CC(C)C)NC(=O)[C@H](C)N(C)C1=O` (stereo partly drawn) [Compound 1910] ({CH2CO}-Y(Carboxymethyl)[Phe(4-COOH)]DWL[Bip][Ile(3ξ)][NMeA][dL][Dab][Cha]VSC[Dab]-NH2; thioether N-14) stands 0.02 µM.
Under `Cc1cccc(C[C@@H]2NC(=O)[C@H](CC(=O)O)NC(=O)[C@H](Cc3ccc(OCC(=O)O)cc3)NC(=O)[C@H](CN3CCOCC3)NC(=O)CSC[C@@H](C(=O)N[C@@H](CCN)C(N)=O)NC(=O)[C@H](CCCN)NC(=O)[C@H](C(C)C)NC(=O)[C@H](Cc3cccc(Br)c3)NC(=O)[C@H](CCN)NC(=O)[C@@H](CC(C)C)NC(=O)[C@H](C)N(C)C(=O)[C@H](CCC(N)=O)NC(=O)[C@H](Cc3ccc(-c4ccccc4)cc3)NC(=O)[C@H](Cc3ccc(C(=O)O)cc3)NC2=O)c1` [Example 2291] ({CH2CO}-[Ala(morpholin-4-yl)]Y(Carboxymethyl)D[Phe(3-Me)][Phe(4-COOH)][Bip]Q[NMeA][dL][Dab][Phe(3-Br)]V[Orn]C[Dab]-NH2; thioether N-14) stands 0.21 µM.
Take `CCC(C)[C@@H]1NC(=O)[C@H](Cc2ccc(-c3ccccc3)cc2)NC(=O)[C@H](C(C)C)NC(=O)[C@H](Cc2c[nH]c3ccccc23)NC(=O)[C@H](CC(=O)O)NC(=O)[C@H](Cc2ccc(OCC(=O)O)cc2)NC(=O)[C@H](C(C)O)NC(=O)CSC[C@@H](C(=O)N[C@@H](CCCN)C(N)=O)NC(=O)[C@H](C(C)O)NC(=O)[C@H](C(C)C)NC(=O)[C@H](CC2CCCCC2)NC(=O)[C@H](CCN)NC(=O)[C@@H](CC(C)C)NC(=O)[C@H](C)N(C)C1=O` (stereo partly drawn) [Compound 2153] ({CH2CO}-[Thr(3ξ)]Y(Carboxymethyl)DWV[Bip][Ile(3ξ)][NMeA][dL][Dab][Cha]V[Thr(3ξ)]C[Orn]-NH2; thioether N-14): the IC50 stood at 0.02 µM.
Under `CC(C)C[C@H]1NC(=O)[C@H](C)N(C)C(=O)[C@H](CCCNC(=N)N)NC(=O)[C@H](Cc2ccc(-c3ccccc3)cc2)NC(=O)[C@H](C(C)C)NC(=O)[C@H](Cc2c[nH]c3ccccc23)NC(=O)[C@H](CC(=O)O)NC(=O)[C@H](Cc2ccc(O)cc2)NC(=O)[C@H](CC(N)=O)NC(=O)CSC[C@@H](C(=O)N[C@@H](C)C(N)=O)NC(=O)[C@H]([C@@H](C)O)NC(=O)[C@H](C(C)C)NC(=O)[C@H](CC2CCCCC2)NC(=O)[C@H](CCCNC(=N)N)NC1=O` [Compound 1275] ({CH2CO}-NYDWV[Bip]R[NMeA][dL]R[Cha]VTCA-NH2; thioether N-14) stands 0.03 µM; under `Cc1cccc(C[C@@H]2NC(=O)[C@H](CC(=O)O)NC(=O)[C@H](Cc3ccc(OCC(=O)O)cc3)NC(=O)[C@H](CN)NC(=O)CSC[C@@H](C(N)=O)NC(=O)[C@H](CC(=O)O)NC(=O)[C@H](C(C)C)NC(=O)[C@H](CC3CCCCC3)NC(=O)[C@H](CCN)NC(=O)[C@@H](CC(C)C)NC(=O)[C@@H]3CCCCN3C(=O)[C@H](Cc3ccc(OCC(=O)O)cc3)NC(=O)[C@H](Cc3ccc(-c4ccccc4)cc3)NC(=O)[C@H](Cc3ccc(OCC(=O)O)cc3)NC2=O)c1` [Compound 1893] ({CH2CO}-[Dap]Y(Carboxymethyl)D[Phe(3-Me)]Y(Carboxymethyl)[Bip]Y(Carboxymethyl)[Pip][dL][Dab][Cha]VDC-NH2; thioether N-14), 0.26 µM.
